Measurements from US10442767B2 (priority 2012, dated 2019).

Legend:
[1] = tested on: hypomyelinated optic nerves from Shiverer mice (shi^−/−); assay: Compound action potential (CAP) of dissected hypomyelinated optic nerve; type: cell-based, mouse; details: Mus musculus; hypomyelinated Shiverer optic nerve, 22 °C, Hill fit; read-out: half-maximal effective concentration (EC50) in enhancing the CAP
Description: In order to determine if the drugs could also be effective in enhancing compound action potentials (CAP), the effects of these compounds on the CAP of hypomyelinated optic nerves from Shiverer mice (shi^−/−) and control mice (shi^+/−, shi^+/+) were tested. Shiverer mice lack compact myelin in the CNS due to a null mutation of the myelin basic protein gene (MBP).
optic nerves were dissected from 12-16 week old Shiverer (shi^−/−) and control mice (shi^+/− and shi^+/+). Mice were euthanized by CO2 overdose and the optic nerves were quickly dissected between the eyeball and the optic chiasm. The nerves were incubated for 30 min at 37° C. in oxygenated (95% O2, 5% CO2) aCSF solution (126 mM NaCl, 3 mM KCl, 2 mM MgSO4, 26 mM NaHCO3, 2 mMCaCl2, 10 mM dextrose, pH 7.5) before the experiment.
compound action potentials (CAP) from hypomyelinated nerves (Shiverer mice, shi^−/−) and myelinated nerves (litermate controls, shi^+/− and shi^+/+) were recorded using suction electrodes as described by Stys et al. Briefly, the dissected optic nerve was placed inside a chamber containing oxygenated (5% CO2, 95% O2) aCSF (300 μL) between two suction electrodes (stimulus and recording electrodes) forming a tight seal on each end. Two additional electrodes were placed in the bath for reference. A supramaximal pulse (250 mV, 20 μs) was applied at the stimulating end of the nerve. The resulting CAP was amplified from the recording electrode using a high impedance low-noise amplifier (EG&G Princeton Applied Research Corporation) and filtered and sampled at 10-100 kHz. […] After each measurement the chamber was washed for 5 min (flow 1 mL/min) with oxygenated aCSF. The study was conducted at 22.2±1.3° C. to allow for slower conduction and the temperature was monitored throughout the experiment. CAP recordings were acquired with a SBC6711 board (Innovative Integration) controlled by in-house written software. Analysis of the traces was done using an in-house software. The half-maximal effective concentration (EC50) for each drug was calculated by plotting the final over initial amplitude vs. concentration and fitted to the Hill equation using Origin.
The Hill equation used to fit the data from the voltage-clamp and the optic nerve experiments was as follows: y=y0+(yf−y0)*x^n/(k^n+x^n); where n refers to the Hill coefficient (typically 1±0.1) and k refers to EC50 or IC50. y0 and yf refers to the origin and final ordinate values and were fixed at 1±0.1 or 0±0.1 depending on the experiment. EC50=10^<log EC50>; where <log EC50>=average of log EC50 values from all experiments with the same drug. 95% C.I.=[Upper Limit . . . Lower Limit]; where U.L.=10^(log EC50+s.d.) and L.L.=10^(log EC50−s.d.). The half-life (t1/2) in the stability and pharmacokinetic experiments was calculated by fitting the data to the equation Ct=C0*exp(−k*t) where C0=initial concentration, Ct=concentration at time t, and k=ln 2/t1/2. Student t-test was used to compare results and P<0.05 was considered significant.

[2] = tested on: C57Bl/6J mice; assay: In vivo effects (tremor, seizures) after intraperitoneal injection; set-up: species or system mouse; details: i.p.; for Effect: N = 5
Description: A consequence of excessive K^+ channel blockage is the advent of seizures. 4-AP is known to cause seizures in mice at high doses.
At high doses, 4-AP causes tremors, muscle spasms and seizures.
10-week-old female C57Bl/6J mice were given an intraperitoneal injection of the drug under investigation and monitored continuously for 4 h. After 4 h no signs of drug effects could be observed. At least 72 h passed between injections to the same mice.

[3] = Stability in microsomes; type: in vitro ADME, CD1 mouse; details: mouse liver microsomes
Description: The stability of these drugs in mouse plasma and mouse liver microsomes was also tested. Liver microsomes contain large amounts of cytochrome P450 and can be used to estimate the metabolic stability of drugs.
study compounds were incubated at initial concentration of 1 μM with liver microsomes from CD1 mouse (0.04 mg/mL) in PBS in the presence or absence of enzyme cofactors (1.3 mM NADP^+, 3.3 mM MgCl2, 3.3 mM G6P and 1 U/ml G6PDH, 1 mM UDPGA and 4.7 μg/ml Alamethicin). After t=0, 20, 40 and 60 min, a sample was removed and the reaction was stopped by adding 1 volume of acetonitrile. The loss of compound was determined by LC-MS analysis comparing the amount of compound in the sample to the respective reference samples (without cofactors). To ensure that the assay is reliable, Propanolol and Verapamil were included as control compounds. […]
The Hill equation used to fit the data from the voltage-clamp and the optic nerve experiments was as follows: y=y0+(yf−y0)*x^n/(k^n+x^n); where n refers to the Hill coefficient (typically 1±0.1) and k refers to EC50 or IC50. y0 and yf refers to the origin and final ordinate values and were fixed at 1±0.1 or 0±0.1 depending on the experiment. […] The half-life (t1/2) in the stability and pharmacokinetic experiments was calculated by fitting the data to the equation Ct=C0*exp(−k*t) where C0=initial concentration, Ct=concentration at time t, and k=ln 2/t1/2. […]

## Nc1ccncc1F [3-F-4-AP, 3-fluoro-4-aminopyridine]
[1]
  EC50: 96 µM
[2]; 30 μmol/kg
  Effect: Mouse quiet
[2]; 60 μmol/kg
  Effect: Mild tremor, mouse quiet
[2]; 90 μmol/kg
  duration of effect (tremors, seizures or jerks): ~30 min
  mice died of seizure: 1 of 5 mice died of seizure
  Effect: Severe tremors and seizures that start
[2]; 90 μmol/kg (highest dose)
  start of tremors and seizures post-injection: 10 s
[2]; mice
  in vivo potency compared with 4-AP: very similar potency to that of 4-AP
[3]
  times more stable than 4-AP in microsomes: 2.7 times
